Measurements from patent US11278533B2, “Animal pest control method” (E.I. DU PONT DE NEMOURS AND COMPANY, priority 2007, dated 2022).

The molecules below were run on cat flea (Ctenocephalides felis) (assay: Test D: cat flea membrane feeding on treated bovine blood). Details: 72 h.
Assay type: in vivo
Experimental: For evaluating control of the cat flea (Ctenocephalides felis), a test compound was solubilized in propylene glycol/glycerol formal (60:40) and then diluted in bovine blood to a final test rate of 30 ppm. The treated blood was placed in a tube, and the bottom of the tube was covered with a membrane. Approximately 10 adult cat fleas were allowed to feed through the membrane on the treated blood. The adult fleas were then evaluated for mortality 72 hours later.
`Cc1cc(C2=NOC(c3cc(Cl)cc(Cl)c3)(C(F)(F)F)C2)ccc1C(=O)NCc1ccccn1` (centres unmarked) [Compound 1, 4-[5-(3,5-dichlorophenyl)-4,5-dihydro-5-(trifluoromethyl)-3-isoxazolyl]-2-methyl-N-(2-pyridinylmethyl)benzamide] showed a mortality at 30 ppm of at least 50%.
In the case of `CSCCNC(=O)c1ccc(C2=NOC(c3cc(Cl)cc(Cl)c3)(C(F)(F)F)C2)cc1C` (centres unmarked) [Compound 2, 4-[5-(3,5-dichlorophenyl)-4,5-dihydro-5-(trifluoromethyl)-3-isoxazolyl]-2-methyl-N-[2-(methylthio)ethyl]benzamide], the mortality at 30 ppm was at least 50%.
Molecule `Cc1cc(C2=NOC(c3cc(Cl)cc(Cl)c3)(C(F)(F)F)C2)ccc1C(=O)NCC(=O)NCC(F)(F)F` (centres unmarked) [Compound 3, 4-[5-(3,5-dichlorophenyl)-4,5-dihydro-5-(trifluoromethyl)-3-isoxazolyl]-2-methyl-N-[2-oxo-2-[(2,2,2-trifluoroethyl)amino]ethyl]benzamide] has a mortality at 30 ppm of at least 50%.
Molecule `Cc1cc(C2=NOC(c3cc(Cl)cc(Cl)c3)(C(F)(F)F)C2)ccc1C(=O)NCCS(C)(=O)=O` (centres unmarked) [Compound 6, 4-[5-(3,5-dichlorophenyl)-4,5-dihydro-5-(trifluoromethyl)-3-isoxazolyl]-2-methyl-N-[2-(methylsulfonyl)ethyl]benzamide] has a mortality at 30 ppm of at least 50%.
With `Cc1cc(C2=NOC(c3cc(Cl)cc(Cl)c3)(C(F)(F)F)C2)ccc1C(=O)NCC[S+](C)[O-]` (centres unmarked) [Compound 5, 4-[5-(3,5-dichlorophenyl)-4,5-dihydro-5-(trifluoromethyl)-3-isoxazolyl]-2-methyl-N-[2-(methylsulfinyl)ethyl]benzamide] the mortality at 30 ppm was at least 50%.
